Data reported in patent publication US9498478B2, “Spiro aminic compounds with NK1 antagonist activity” (Rottapharm Biotech Srl, priority 2011, dated 2016).

target: T1, human NK1 receptor (Homo sapiens, UniProt P25103); assay: Antagonist activity at the human NK1 receptor endogenously expressed in U373 cells, agonist-induced cytosolic Ca2+ mobilization (fluorimetric); format: cell-based; conditions: U373 MG, percent inhibition of control response to 3 nM [Sar9,Met(O2)11]-SP at compound concentration 10 μM, read-out: NK1 % inh @10 μM
T1 construct: human NK1 receptor endogenously expressed in U373 cells; endogenous in cells; host or cells: U373 (human U373MG astrocytoma) cells
Description: Evaluation of the antagonist activity of compounds at the human NK1 receptor endogenously expressed in U373 cells was determined by measuring their effect on agonist-induced cytosolic Ca2+ ion mobilization using a fluorimetric detection method.
The cells were suspended in DMEM buffer (Invitrogen), then distributed in microplates at a density of 1.10^4 cells/well. The fluorescent probe (Fluo4 NW, Invitrogen) mixed with probenicid in HBSS buffer (Invitrogen) complemented with 20 mM Hepes (Invitrogen) (pH 7.4) was then added into each well and equilibrated with the cells for 60 min at 37° C. then 15 min at 22° C. Thereafter, the assay plates were positioned in a microplate reader (CellLux, PerkinElmer) which was used for the addition of the test compound, reference antagonist or HBSS buffer then 5 min later 3 nM [Sar9,Met(O2)11]-SP or HBSS buffer (basal control), and the measurements of changes in fluorescence intensity which varies proportionally to the free cytosolic Ca2+ ion concentration.
The compounds, dissolved in DMSO and diluted in the medium, have been analysed in the 1 nM-1 μM concentration range (every concentration in duplicate). The antagonistic activity vs receptor NK1 of invention compounds has been expressed as pKb (co-logarithm of the apparent dissociation constant calculated by using the modified Cheng Prusoff equation) or alternatively as a percent of inhibition of the control response to 3 nM [Sar^9,Met(O2)^11]-SP at a compound concentration of 10 μM.
The standard reference antagonist was L 733,060, which was tested in each experiment at several concentrations to generate a concentration-response curve from which its IC50 value is calculated. • Bibliographic reference: EISTETTER, H. R., MILLS, A., BREWSTER, R., ALOUANI, S., RAMBOSSON, C. and KAWASHIMA, E. (1992), Functional characterization of neurokinin-1 receptor on human U373MG astrocytoma cells, Glia, 6: 89.

T1 sequence (P25103 whole entry): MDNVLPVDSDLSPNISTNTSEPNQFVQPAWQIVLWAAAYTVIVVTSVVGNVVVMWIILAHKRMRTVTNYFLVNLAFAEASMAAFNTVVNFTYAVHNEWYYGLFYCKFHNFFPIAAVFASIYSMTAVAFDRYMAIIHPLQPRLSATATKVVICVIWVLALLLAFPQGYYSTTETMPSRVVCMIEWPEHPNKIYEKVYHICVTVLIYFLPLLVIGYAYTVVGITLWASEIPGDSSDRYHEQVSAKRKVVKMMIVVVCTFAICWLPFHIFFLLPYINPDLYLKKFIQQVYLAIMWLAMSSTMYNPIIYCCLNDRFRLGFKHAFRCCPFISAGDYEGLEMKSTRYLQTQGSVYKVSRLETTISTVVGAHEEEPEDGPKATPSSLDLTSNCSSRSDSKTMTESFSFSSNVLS

Row | Compound | inhibition at 10 µM
1 | O=C(c1cc(F)ccc1-n1nccn1)N1CCC2(CC2)C[C@H]1CNc1ccc(Cl)cn1 [Compound 4, (S)-(5-(((5-chloropyridin-2-yl)amino)methyl)-6-azaspiro[2.5]octan-6-yl)(5-fluoro-2-(2H-1,2,3-triazol-2-yl)phenyl)methanone] | 61%
2 | Cc1ccc(-c2ncccn2)c(C(=O)N2CCC3(CC3)C[C@H]2CNc2ccc(C(F)(F)F)cn2)c1 [Compound 7, (S)-(5-methyl-2-(pyrimidin-2-yl)phenyl)(5-(((5-(trifluoromethyl)pyridin-2-yl)amino)methyl)-6-azaspiro[2.5]octan-6-yl)methanone] | 87%
3 | Cc1ccc(-c2ccccn2)c(C(=O)N2CCC3(CC3)C[C@H]2CNc2ccc(Cl)cn2)c1 [Compound 2, (S)-(5-(((5-chloropyridin-2-yl)amino)methyl)-6-azaspiro[2.5]octan-6-yl)(5-methyl-2-(pyridin-2-yl)phenyl)methanone] | 87%
4 | O=C(c1cc(F)ccc1-c1ccccn1)N1CCC2(CC2)C[C@H]1CNc1ccc(Cl)cn1 [Compound 3, (S)-(5-(((5-chloropyridin-2-yl)amino)methyl)-6-azaspiro[2.5]octan-6-yl)(5-fluoro-2-(pyridin-2-yl)phenyl)methanone] | 65%
5 | Cc1ccc(-n2nccn2)c(C(=O)N2CCC3(CC3)C[C@H]2CNc2ccc(Cl)cn2)c1 [Compound 6, (S)(5-((5-chloropyridin-2-ylamino)methyl)-6-azaspiro[2.5]octan-6-yl)(5-methyl-2-(2H-1,2,3-triazol-2-yl)phenyl)methanone] | 61%
6 | Cc1ccc(-n2nccn2)c(C(=O)N2CCC3(CC3)C[C@H]2CNc2ccc(C(F)(F)F)cn2)c1 [Compound 5, (S)-(5-methyl-2-(2H-1,2,3-triazol-2-yl)phenyl)(5-(((5-(trifluoromethyl)pyridin-2-yl)amino)methyl)-6-azaspiro[2.5]octan-6-yl)methanone] | 67%

same assay, conditions: co-logarithm of apparent dissociation constant by modified Cheng Prusoff equation, agonist 3 nM [Sar9,Met(O2)11]-SP, read-out: pKb NK1 (converted)

Row | Compound | Kb
7 | Cc1ccc(-c2ncccn2)c(C(=O)N2CCC3(CC3)C[C@H]2CNc2ccc(Cl)cn2)c1 [Compound 8, (S)-(5-(((5-chloropyridin-2-yl)amino)methyl)-6-azaspiro[2.5]octan-6-yl)(5-methyl-2-(pyrimidin-2-yl)phenyl)methanone] | 5.01 nM
8 | O=C(c1cc(Cl)ccc1-c1ncccn1)N1CCC2(CC2)C[C@H]1CNc1ccc(Cl)cn1 [Compound 1, (S)-(5-chloro-2-(pyrimidin-2-yl)phenyl)(5-(((5-chloropyridin-2-yl)amino)methyl)-6-azaspiro[2.5]octan-6-yl)methanone] | 2.51 nM
9 | O=C(c1cc(F)ccc1-c1ncccn1)N1CCC2(CC2)C[C@H]1CNc1ccc(Cl)cn1 [Compound 9, (S)-(5-(((5-chloropyridin-2-yl)amino)methyl)-6-azaspiro[2.5]octan-6-yl)(5-fluoro-2-(pyrimidin-2-yl)phenyl)methanone] | 2.51 nM
